Source: patent US8329678B1, “Antiinflammatory compound” (priority 2011, dated 2012)

Experiments:
[1] = tested on: isolated polymorphoneutrophils (PMNs); experiment: Luminol-enhanced chemiluminescence oxidative burst assay, isolated PMNs; format: cell-based, human
Source text: (§1) Heparinized blood was obtained by vein puncture aseptically from healthy volunteers (25-38 years age). The buffy coat containing PMNs was collected by dextran sedimentation and the cells were isolated after the LSM density gradient centrifugation from the tube base. Cells were washed twice and suspended in Hank's Balance Salt Solution (Ca^2+ and Mg^2+ free) (HBSS^−−), pH 7.4. Neutrophils were purified from RBCs contamination using hypotonic solution. Cells were adjusted to their required concentration using Hank's Balance Salt Solution containing Ca^2+ and Mg^2+ (HBSS++)
(§2) Luminol-enhanced chemiluminescence assay was performed as described by Helfand et al. (17), and Haklar et al. (18) with some modifications. Briefly, 25 μL diluted whole blood (1:200 dilution in sterile HBSS^++) or 25 μL of PMNs (1×10^6) cells were incubated with 25 μL of serially diluted compounds with concentration ranges between 3.2-50 mg/mL. Tests were performed in white 96-well plates, which were incubated at 37° C. for 30 minutes in the thermostated chamber of the luminometer. Opsonized zymosan-A, 25 μL, followed by 25 μL luminol (7×10^−5M) along with HBSS^++ was added to each well to obtain a 100 μL volume/well. […] Chemiluminescence peaks were recorded with the Luminometer. Results were monitored as chemiluminescence relative light units (RLU) with peak and total integral values.

[2] = tested on: human lung cancer cell line (NCI-H460); experiment: Sulforhodamine B (SRB) growth inhibition assay; format: cell-based; details: for TGI (μM), could not be determined: NCI-H460, maximum dose 100 μM
Procedure: The sulforhodamine B (SRB) protein-staining assay was employed for measurement of in vitro growth inhibition and cytotoxicity (21) The appropriate cell density (cells/well) of NCI-H460 cells (1×10^4) was added in 96-well plates. The cell density used was dependent on the doubling time of the cell line leading to the formation of monolayer. After 24 h incubation, different doses of Compounds 1-3 were added and incubated for further 48 h. This was followed by fixation of cells with ice-cold trichloroacetic acid (50 μl, 50%) at room temperature for 30 min. The plates were carefully washed five times with distilled water, and left for overnight drying in air. Sulforhodamine B dye (100 μl, 0.4% in 1% acetic acid) was introduced in each well and after 30 min residual dye was removed using acetic acid (1%) and air-dried overnight. The bound SRB dye was solubilized in Tris-base solution (100 μl, 10 mM) with gentle shaking on a plate-shaker for 5 min prior to optical density (OD) measurements at 545 nm in a plate reader. Drug concentrations causing growth inhibition (GI50) of 50% cells were calculated from dose response curves and total growth inhibition of Compound 2 was also evaluated.

[3] = tested on: whole blood phagocytes; experiment: Luminol-enhanced chemiluminescence oxidative burst assay, whole blood; format: cell-based, human
Source text: as §1, §2

[4] = tested on: IL-2 production from peripheral blood mononuclear cells; experiment: IL-2 cytokine production by PHA-activated PBMC (ELISA); format: cell-based, human
Procedure: IL-2 cytokine was produce from peripheral blood mononuclear cells (PBMC). IL-2 cytokine production by PHA activated cells in the presence or absence of test compounds was studied by ELISA using the human cytokine kit (Diaclone, Besancon Cedex France). Briefly, freshly prepared mononuclear cells (10^5/well) were cultured in 96-well microtiter flat bottom plate in the presence or absence of 5 μg/mL PHA. Four different concentrations (10.33-331.13 μM/mL) of compounds, along with PHA, were used in this assay. The culture plate was incubated at 37° C. for 18 h. Then the supernatant was collected and analyzed for IL-2 cytokine production following kit manufacturer instructions.

[5] = tested on: PHA-activated T-cell proliferation; experiment: PHA-activated T-cell proliferation assay (3H-thymidine incorporation); format: cell-based, human
Procedure: The T-cell proliferation assay was performed as described by Nielson et al. (19). In this assay, isolated lymphocytes were stimulated by adding the phytohemagglutinin (PHA) in culture. The rate of proliferation and survival was measured by radiolabelled thymidine incorporation method. The lymphocytes were isolated as described by Boyum (20). A 50 μL of cell suspension (10^6/mL) was added to each well of a 96-well round bottom tissue culture plate. 50 μL of PHA was added in each well from the working solution (20 μg/mL) to have final concentration 5 μg/mL. The final volume was adjusted to 200 μL in each well by adding complete RPMI media. The plates were incubated at 37° C. for 72 hours (90% humidity, 5% CO2/air). Methyl-^3H thymidine (Amersham Pharmacia Biotech) 0.5 μCi was added in each well and incubated for further 18 hours. Cells were harvested on a filter mat (Type G-7) using cell harvester (INOTECH IH-280, Switzerland) and the radioactivity (CPM) was measured using a β-scintillation counter (LS 6500, Beckman Coulter, USA). (FIG. 2A)

Structure (SMILES) | effect on ROS production, isolated neutrophils [1] | anticancer activity against NCI-H460 [2] | effect on ROS production, whole blood phagocytes [3] | effect on IL-2 production [4] | effect on T-cell proliferation [5] | growth inhibition of cancer cells at 100 μM ([2]; 100 μM) | TGI (μM), could not be determined [2]
C[C@]12C=CC(=O)C[C@@H]1CC[C@@H]1[C@@H]2CC[C@@]2(C)[C@H]1CC[C@]2(C)O [Compound 2, 17β-hydroxy-17α-methyl-5α-androst-1-en-3-one] | did not result in any significant effect | showed anticancer activity | did not result in any significant effect |  |  |  | 
C[C@]12CCC(=O)C[C@@H]1CC[C@@H]1[C@@H]2CC[C@@]2(C)[C@H]1CC[C@]2(C)O [Compound 3, 17β-hydroxy-17α-methyl-5α-androstan-3-one] | did not result in any significant effect | non-active | did not result in any significant effect | moderate inhibitory activity | moderate inhibitory activity | not able to inhibit considerable growth | ND (Values could not be determined indicates <50% inhibition of cell growth at maximum dose (100 μM) tested.)
C[C@]12C=CC(=O)C=C1CC[C@@H]1[C@@H]2CC[C@@]2(C)[C@H]1CC[C@]2(C)O [Compound 1, dianabol, reference compound] |  | showed anticancer activity |  | did not show any significant effect | did not show any significant effect |  | ND (Values could not be determined indicates <50% inhibition of cell growth at maximum dose (100 μM) tested.)
